The nature of this data set: Whole-body autoradiography. Type of data set: in vivo, rat. As to the method:
Whole-body autoradiography in rats was conducted using [^14C]-radiolabelled fexinidazole. The site of the [^14C] label in the fexinidazole molecule on the bridging carbon atom ensured that the radioactivity would remain associated with both the sulfoxide and sulfone metabolites. The radiolabelled compound was administered at the dose of 800 mg/kg (approximately 3.7 MBq/kg, 100 µCi/kg) by gastric gavage to eight male albino Sprague Dawley rats. Two animals were sacrificed at each time point 2, 8, 24 or 48 h after administration and the quantitative radioactivity distribution in the organs and tissues was evaluated using quantitative whole-body autoradiography. […]
This study was conducted according to Protocol N° 0510-2007. A copy of the experimental protocol is included in Appendix 1.
FEXINIDAZOLE is a 5-nitroimidazole derivative biologically active against Trypanosoma parasites (T.b. rhodesiense and T.b. brucei) and useful in the treatment of the Human African Trypanosomiasis (HAT), known as sleeping sickness.
FEXINIDAZOLE is a compound currently under development by the Study Sponsor.
The objective of this study was to obtain information on the tissue distribution of radioactive drug-related material following oral administration of [14C]-FEXINIDAZOLE (800 mg/kg) to male Sprague Dawley rats.
The albino Sprague Dawley rat was chosen as the species for this study since it was one of the species used in the toxicological evaluation of the test compound. Only male animals were used as no gender differences were expected with respect to the aim of the study. The oral route of administration was chosen as this is the intended therapeutic route. The dose level was selected in agreement with the Study Sponsor and it is within the pharmacological relevant range. No overt toxicity was expected after single dosing at […]
The study was conducted on 8 male animals after single oral administration of [14C]- FEXINIDAZOLE (800 mg/kg, approximately 3.7 MBq/kg, 100 µCi/kg). The animals were sacrificed at 2, 8,24 and 48 hours after administration and each rat was analyzed by a validated Whole Body Autoradioluminography (WBA) method, in order to evaluate the quantitative tissue distribution of radioactivity.
A summary of the experimental design is reported below:
Animal no. Date of Dosing Administered Dose Samples collected and (oral administration) analyzed
M3, M4 100 µCi/kg Whole body sections
The experimental phase of the study started on June 10, 2008 and was completed on July […]
6.6. Preparation and Analysis of Dose Formulation
The test formulation was prepared on the day of dosing by suspending unlabelled FEXINIDAZOLE and [14C]-FEXINIDAZOLE (see section 6.1) in 5% Tween 80 and 0.5% Methyl cellulose 400 cP (Methocel) in water, in order to obtain [14C]- FEXINIDAZOLE at the final target concentration of 80 mg/mL, corresponding to a radioactivity concentration of about 370 kBq/mL (10 µCi/mL).
The test formulation was prepared by suspending an appropriate amount of unlabelled FEXINIDAZOLE in the dose vehicle. This formulation was homogenised using a Potter-Elvehjem homogenizer apparatus (teflon pestle of approx. 30 mm x 53 mm and glass tube of 40 mL), in order to obtain a fine suspension by up-and-down strokes, gently made by hand. The formulation was then collected and transferred from the homogeniser glass tube to the glass pot containing the [14C]-FEXINIDAZOLE.
During the preparation the test formulation was protected from light as far as possible.
The radioactivity concentration and homogeneity of the test formulation were determined, before administration, by liquid scintillation counting of triplicate weighed aliquots of test formulation. The radiolabelled test formulation was used immediately after formulation.
6.7.1. Administered Doses
The dose of [14C]-FEXINIDAZOLE was orally administered by gastric gavage at the target dose level of 800 mg/kg (radioactivity dose of about 3.7 MBq/kg, 100 µCi/kg) and at a target dose volume of about 10 mL/kg. […]

Where “and” joins values, the source holds several entries; their conditions need not be identical. Equal values may be shown once.

Take `CSc1ccc(OCc2ncc([N+](=O)[O-])n2C)cc1` [Fexinidazole, 1-methyl-2-((p-(methylthio)phenoxy)methyl)-5-nitroimidazole]: the “brain-to-blood concentration ratio of radioactivity” value (800 mg/kg po, all times) is listed as 0.4–0.6. Also, the Mean radioactivity concentration was determined as 303.2 µgeq/g (Blood, 2h); 273.0 µgeq/g (Blood, 8h); 51.3 µgeq/g (Blood, 24h); 14.3 µgeq/g (Blood, 48h); 159.7 µgeq/g (Brain, 2h); 148.5 µgeq/g (Brain, 8h). Further, the Mean radioactivity concentration (Brain, 24h) stood at 22.4 µgeq/g and the Mean radioactivity concentration (Brain, 48h) is listed as 5.7 µgeq/g. Also, the Radioactivity concentration (Intestine wall, 2h, listed as [14C]-FEXINIDAZOLE) is 4900 - 5600 µgeq/g and 5281.4 µgeq/g.
